Experimental findings from US20020169175A1, “Pharmaceutically acceptable salts of heterocyclic compounds” (DR. REDDY'S LABORATORIES LTD., priority 2001, published 2002) are described below.

Where a name gives a salt, the structure may show the parent alone. Read-outs that look alike come from different tables or passages of the source.

The nature of series [1]: Single dose oral pharmacokinetic studies in male Wistar rats. In kind it is in vivo, rat. As to conditions: fasted, suspension in 0.25% sodium CMC; for half-life: read-out: t½ (converted). The procedure:
Single Dose Oral Pharmacokinetic Studies
Male Wistar rats (220-250 gm) were used in the experiments. The animals were maintained under standard laboratory conditions and had free access to feed and water ad libitum. Before experimentation animals were fasted overnight (˜15 h) during which they had free access to water ad libitum.
An amount equivalent to 30 mg of drug was weighed accurately and transferred into a clean mortar and triturated to obtain a fine powder. To this 0.5 ml of 0.25% sodium carboxy methyl cellulose (sodium CMC) was added to obtain a paste. To the obtained paste remaining 2.5 ml of sodium CMC was added to make up the volume to 3 ml. Based on the animal weight appropriate volume (body weight×3) of the prepared suspension was administered through oral gavage.
After dosing, at designated time points (0.5, 1, 2, 3, 5, 8, 12 and 24 h) 200 μl of blood was collected from retro orbital plexus into 0.5 ml eppendorff tubes containing EDTA (10 μl of 200 mg/ml solution in Milli Q water). Blood was centrifuged at 12,800 rpm for 5 min and obtained plasma and stored at −20° C. till further analysis.
100μl plasma was transferred into a clean and dry centrifuge tube. To this internal standard (10 μl of 100 μg/ml) was added and extracted with 2 ml of extraction recovery solvent. The contents were vortexed for 2 min, followed by centrifugation for 10 min at 2800 rpm. Clear organic layer (2×0.75 ml) was separated and dried under nitrogen gas at 50° C. The residue was reconstituted with 150 μl of mobile phase and vortexed for 20 sec, from this 50 μl was injected onto HPLC column.
Pharmacokinetic parameters were calculated by non-compartmental model analysis. The peak plasma concentration (Cmax) and the corresponding time (Tmax)were directly obtained from the raw data. The area under the plasma concentration versus time curve up to the last quantifiable time point, AUC(0−t) was obtained by the linear and log-linear trapezoidal summation. The AUC(0−t) extrapolated to infinity (i.e., AUC(0−∞)) by adding the quotient of Clast/Kel, where Clast represents the last measurable time concentration and Kel represents the apparent terminal rate constant. Kel was calculated by the linear regression of the log-transformed concentrations of the drug in the terminal phase. The half-life of the terminal elimination phase was obtained using the relationship t½=0.693/Kel.

Where [2] appears, read: male, Wistar, rat, plasma, po, 30 mg/kg.
Where [3] appears, read: male, Wistar, rat, plasma, po, 30 mg/kg, read-out: AUC (0-t).
Where [4] appears, read: male, Wistar, rat, plasma, po, 30 mg/kg, read-out: Cmax.
Setting [5] is: male, Wistar, rat, plasma, po, 30 mg/kg, read-out: Tmax.

In general, melting point refers to the temperature, or range, at which the solid turns liquid. The compound `CCO[C@@H](Cc1ccc(OCCn2c(CC)nc3ccccc3c2=O)cc1)C(=O)O` (as salt: salt) [Example 4, (−)-3-[4-[2-(2-Ethyl-4-oxo-3,4-dihydroquinazolin-3-yl)ethoxy]phenyl]-2ethoxypropanoic acid lysine salt] displayed a melting point of 152 to 155 °C.
With `CCO[C@@H](Cc1ccc(OCCn2c(CC)nc3ccccc3c2=O)cc1)C(=O)O` (as salt: salt) [Example 7, (−)-3-[4-[2-(2-Ethyl-4-oxo-3,4-dihydroquinazolin-3-yl)ethoxy]phenyl]-2-ethoxypropanoic acid N-methyl glucamine salt], the melting point was in the range of 114 to 116 °C.
The same measure, in the same setting: with `CCO[C@@H](Cc1ccc(OCCn2c(CC)nc3ccccc3c2=O)cc1)C(=O)O` (as salt: salt) [Example 10, (−)-3-[4-[2-(2-Ethyl-4-oxo-3,4-dihydroquinazolin-3-yl)ethoxy]phenyl]-2-ethoxypropanoic acid magnesium salt] the figure was above 250 °C; with `CCO[C@@H](Cc1ccc(OCCn2c(CC)nc3ccccc3c2=O)cc1)C(=O)O` (as salt: salt) [Example 11, (−)-3-[4-[2-(2-Ethyl-4-oxo-3,4-dihydroquinazolin-3-yl)ethoxy]phenyl]-2-ethoxypropanoic acid arginine salt], 216 to 220 °C.
In turn, `CCCc1nn(C)c2c(=O)n(CCOc3ccc(C[C@H](OCC)C(=O)O)cc3)c(C)nc12` (as salt: salt) [Example 24, 3-[4-[2-(1,5-Dimethyl-7-oxo-3-propyl-6,7-dihydro-1H-pyrazolo[4,3-d]pyrimidin-6-yl)ethoxy]phenyl]-2-ethoxypropionic acid aminoguanidine hydrogen carbonate salt] yielded a melting point of 110 to 112 °C.
Compound `CCCc1nn(C)c2c(=O)n(CCOc3ccc(C[C@H](OCC)C(=O)O)cc3)c(CC)nc12` (as salt: salt) [Example 36, (−)-3-[4-[2-(1-Methyl-5-ethyl-7-oxo-3-propyl-6,7-dihydro-1H-pyrazolo[4,3-d]pyrimidin-6-yl)ethoxy]phenyl]-2-ethoxypropionic acid arginine salt] gave a melting point of 235 °C.
Consider `CCCc1nn(C)c2c(=O)n(CCOc3ccc(C[C@H](OCC)C(=O)O)cc3)c(CC)nc12` (as salt: salt) [Example 39, (−)-3-[4-[2-(1-Methyl-5-ethyl-7-oxo-3-propyl-6,7-dihydro-1H-pyrazolo[4,3-d]pyrimidin-6-yl)ethoxy]phenyl]-2-ethoxypropionic acid aminoguanidine hydrogen carbonate salt], for which the melting point is 130 °C.
For the compound `CCCc1nn(C)c2c(=O)n(CCOc3ccc(C[C@H](OCC)C(=O)O)cc3)c(CC)nc12` (as salt: salt) [Example 41, (−)-3-[4-[2-(1-Methyl-5-ethyl-7-oxo-3-propyl-6,7-dihydro-1H-pyrazolo[4,3-d]pyrimidin-6-yl)ethoxy]phenyl]-2-ethoxypropionic acid dicyclohexylamine salt], the melting point fell in the range of 138 to 140 °C.
In turn, `CCCc1nn(C)c2c(=O)n(CCOc3ccc(C[C@H](OCC)C(=O)O)cc3)c(CC)nc12` (as salt: salt) [Example 44, (−)-3-[4-[2-(1-Methyl-5-ethyl-7-oxo-3-propyl-6,7-dihydro-1H-pyrazolo[4,3-d]pyrimidin-6-yl)ethoxy]phenyl]-2-ethoxypropionic acid metformin salt] showed a melting point of 118 °C.
The same measure, in the same setting: with `CCCc1nn(C)c2c(=O)n(CCOc3ccc(C[C@H](OCC)C(=O)O)cc3)c(CC)nc12` (as salt: tromethamine) [Example 40, (−)-3-[4-[2-(1-Methyl-5-ethyl-7-oxo-3-propyl-6,7-dihydro-1H-pyrazolo[4,3-d]pyrimidin-6-yl)ethoxy]phenyl]-2-ethoxypropionic acid tromethamine salt] the figure was 116 to 118 °C; with `CCCc1nn(C)c2c(=O)n(CCOc3ccc(C[C@H](OCC)C(=O)[O-])cc3)c(CC)nc12.[K+]` (stereo in doubt), 164 °C; with `CCCc1nn(C)c2c(=O)n(CCOc3ccc(C[C@H](OCC)C(=O)[O-])cc3)c(CC)nc12.[Li+]` (stereo in doubt), 215 to 218 °C.
Compound `CCO[C@@H](Cc1ccc(OCCn2c(CC)nc3ccccc3c2=O)cc1)C(=O)[O-].[Li+]` (stereo in doubt) showed a melting point of 245 to 247 °C.
The AUC(0-inf) is the area under the concentration-time curve extrapolated to infinity. For orientation: AUC(0-t) means exposure summed from dosing to a finite time, without extrapolation to infinity. For orientation: Cmax means the highest concentration seen after dosing. One may read the Tmax as the time from dosing to the highest level. On to `CCO[C@@H](Cc1ccc(OCCn2c(CC)nc3ccccc3c2=O)cc1)C(=O)O` [Example 4, (−)-3-[4-[2-(2-Ethyl-4-oxo-3,4-dihydroquinazolin-3-yl)ethoxy]phenyl]-2ethoxypropanoic acid lysine salt], for which the Kel in series [1] turned out to be 0.31 h⁻¹. In addition, in series [1] (setting [2]), the AUC(0-inf) turned out to be 38400 ng·h/mL and the half-life was 1.97 h. Also, the AUC(0-t) in series [1] (setting [3]) stood at 40600 ng·h/mL. Further, the Cmax in series [1] (setting [4]) came to 38700 ng/mL. The Tmax in series [1] (setting [5]) was 0.5 h.
What is called t½ is the time in which the quantity being followed falls by half. Low readings indicate fast loss, high ones slow loss. In the case of `CCO[C@@H](Cc1ccc(OCCn2c(CC)nc3ccccc3c2=O)cc1)C(=O)O` [Example 7, (−)-3-[4-[2-(2-Ethyl-4-oxo-3,4-dihydroquinazolin-3-yl)ethoxy]phenyl]-2-ethoxypropanoic acid N-methyl glucamine salt], in series [1], the “AUC (0-∞)” value came to 51430 ng·h/mL, the “AUC(0-t)” value worked out at 51650 ng·h/mL, the Cmax was 40250 ng/mL and the Kel amounted to 0.38 h⁻¹. For the same compound, in series [1], the Tmax was found to be 0.90 h and the t½ is 1.91 h.
Consider `CCO[C@@H](Cc1ccc(OCCn2c(CC)nc3ccccc3c2=O)cc1)C(=O)O` [Example 10, (−)-3-[4-[2-(2-Ethyl-4-oxo-3,4-dihydroquinazolin-3-yl)ethoxy]phenyl]-2-ethoxypropanoic acid magnesium salt], for which, in series [1], the “AUC (0-∞)” value was determined as 74070 ng·h/mL, the “AUC(0-t)” value turned out to be 75890 ng·h/mL, the Cmax worked out at 54210 ng/mL and the Kel was 0.34 h⁻¹. In addition, in series [1], the Tmax was 0.50 h and the t½ came to 2.16 h.
Turning to `CCCc1nn(C)c2c(=O)n(CCOc3ccc(C[C@H](OCC)C(=O)O)cc3)c(CC)nc12` [Example 40, (−)-3-[4-[2-(1-Methyl-5-ethyl-7-oxo-3-propyl-6,7-dihydro-1H-pyrazolo[4,3-d]pyrimidin-6-yl)ethoxy]phenyl]-2-ethoxypropionic acid tromethamine salt], in series [1], the Kel amounted to 0.60 h⁻¹ and the Tmax was 0.75 h. In addition, in series [1] (setting [2]), the AUC(0-inf) came out at 78600 ng·h/mL and the half-life was 1.2 h. For the same compound, the AUC(0-t) in series [1] (setting [3]) was determined as 77800 ng·h/mL. Besides, in series [1] (setting [4]), the Cmax was 34200 ng/mL.
With `CCO[C@@H](Cc1ccc(OCCn2c(CC)nc(-c3ccccc3)cc2=O)cc1)C(=O)[O-].[K+]` [Example 46, (−)2-Ethoxy-3-[4-[2-[2-ethyl-6-oxo-4-phenyl-1,6-dihydropyrimidin-1-yl]ethoxy]phenyl]propanoic acid potassium salt], in series [1], the Kel was 0.32 h⁻¹. Besides, in series [1] (setting [2]), the total exposure AUC(0-inf) is 62900 ng·h/mL and the half-life was 2.19 h. Also, in series [1] (setting [3]), the AUC(0-t) came to 61200 ng·h/mL. Moreover, the Cmax in series [1] (setting [4]) was 17700 ng/mL. For the same compound, in series [1] (setting [5]), the Tmax came out at 1.33 h.
Take `CCO[C@@H](Cc1ccc(OCCn2c(CC)nc(-c3ccccc3)cc2=O)cc1)C(=O)[O-].[Na+]` [Example 47, (−)2-Ethoxy-3-[4-[2-[2-ethyl-6-oxo-4-phenyl-1,6-dihydropyrimidin-1-yl]ethoxy]phenyl]propanoic acid sodium salt]: in series [1], the Kel worked out at 0.34 h⁻¹. Besides, in series [1] (setting [2]), the AUC(0-inf) was found to be 83300 ng·h/mL and the half-life is 2.07 h. For the same compound, the AUC(0-t) in series [1] (setting [3]) stood at 82200 ng·h/mL. Further, the Cmax in series [1] (setting [4]) was determined as 39500 ng/mL. Moreover, the Tmax in series [1] (setting [5]) worked out at 0.5 h.
As to `CCO[C@@H](Cc1ccc(OCCn2c(CC)nc(-c3ccccc3)cc2=O)cc1)C(=O)O` [Example 48, (−)2-Ethoxy-3-[4-[2-[2-ethyl-6-oxo-4-phenyl-1,6-dihydropyrimidin-1-yl]ethoxy]phenyl]propanoic acid L-arginine salt], in series [1], the Kel is 0.29 h⁻¹. Besides, in series [1] (setting [2]), the AUC(0-inf) was determined as 92600 ng·h/mL and the half-life is 2.18 h. For the same compound, in series [1] (setting [3]), the AUC(0-t) was 90100 ng·h/mL. Also, the Cmax in series [1] (setting [4]) was 50400 ng/mL. In series [1] (setting [5]), the Tmax is 0.5 h.
